Where a SMILES comes first, the peptide text is derived from it. The star is where a group is joined. Cbz = O=C(OCc1ccccc1)*
Legend:
[1] = test system: polyubiquitinated 3βHSD1(367T); assay: Anti-ubiquitin immunoprecipitation in LNCaP; format: cell-based, human; conditions: 10 uM, 8 hours
3βHSD1 (367N) = assay: Western blot of endogenous 3βHSD1 protein in LAPC4 after degradation inhibitor; format: cell-based, human; conditions: LAPC4, 10 μM
Excerpt: For Western blot analysis, whole cell protein extract was harvested using RIPA buffer (Sigma-Aldrich) with protease inhibitor cocktail (Roche). […] The protein was transferred to a PVDF membrane and was detected by mouse anti-3βHSD1 (Sigma), rabbit anti-HA (Santa Cruz Biotechnology, Santa Cruz, Calif.), and mouse anti-β-actin (Sigma) antibodies. […]

[2] = test system: polyubiquitinated 3βHSD1 (367N); assay: Anti-ubiquitin immunoprecipitation in LAPC4; format: cell-based, human; conditions: LAPC4, 10 μM; 8 hours
Procedure: Pre-cleared lysate was incubated with mouse anti-ubiquitin antibody (Santa Cruz) at 4° C. for 3 hours and followed by adding 40 μl of Protein AG UltraLink Resin (Thermo Scientific) for another hour for pull down. After extensive washing with lysis buffer, the purified proteins were eluted with 25 μl 2×SDS sample buffer and analyzed by Western blot.

3βHSD1 (367T) = assay: Western blot of endogenous 3βHSD1 protein in LNCaP after proteasome inhibitor; format: cell-based, human; conditions: 10 μM, 8 hours
Procedure: For Western blot analysis, whole cell protein extract was harvested using RIPA buffer (Sigma-Aldrich) with protease inhibitor cocktail (Roche). Protein concentration was determined by BCA Protein Assay Reagent (Thermo Scientific, Rockford, Ill.), and 20 μg protein was resolved by 8.5% SDS-PAGE. The protein was transferred to a PVDF membrane and was detected by mouse anti-3βHSD1 (Sigma), rabbit anti-HA (Santa Cruz Biotechnology, Santa Cruz, Calif.), and mouse anti-β-actin (Sigma) antibodies. To determine the role of the ERAD pathway in 3βHSD1 stability, cells were treated with Eeyarestatin (Sigma) for 6 hours before harvesting cell lysate.

3βHSD1 = assay: Lentiviral shRNA knockdown, 3βHSD1 immunoblot in LNCaP; format: cell-based, human; conditions: stable lentiviral expression
Procedure: Lentiviral vector construction, viral packaging and infection were performed as previously described. Chang et al., Proc. Natl. Acad. Sci. USA, 108, 13728-13733 (2011). Briefly, […] miR30-styled shRNA sequences (#1: 5′-[…] […]-3′ (SEQ ID NO: 9); #2: 5′-[…] […]-3′ (SEQ ID NO: 10)) against HSD3B1 were PCR amplified and cloned into the pGIPZ vector (Open Biosystems, Huntsville, Ala.) and confirmed by sequencing. Virus packaging was carried out in 293T cells by co-transfecting 10 μg each of pGIPZ, pMD2.G, and psPAX2 vector. To increase transduction efficiency, 30 mL supernatant containing lentiviral particles were collected, filtered with a 0.45 μm nitrocellulose membrane and concentrated by ultracentrifugation at 19,000 rpm for 2 hours and 20 minutes at room temperature without brake. […]
For Western blot analysis, whole cell protein extract was harvested using RIPA buffer (Sigma-Aldrich) with protease inhibitor cocktail (Roche). Protein concentration was determined by BCA Protein Assay Reagent (Thermo Scientific, Rockford, Ill.), and 20 μg protein was resolved by 8.5% SDS-PAGE. The protein was transferred to a PVDF membrane and was detected by mouse anti-3βHSD1 (Sigma), rabbit anti-HA (Santa Cruz Biotechnology, Santa Cruz, Calif.), and mouse anti-β-actin (Sigma) antibodies. […]

LNCaP xenografts = assay: LNCaP xenograft CRPC growth in orchiectomized mice with DHEA pellet; format: in vivo, mouse; conditions: orchiectomy and DHEA pellet
Procedure: Mouse xenograft studies and abiraterone acetate treatment were done as described in detail previously. Li et al., Clin Cancer Res 18, 3571-3579 (2012). Briefly, male NOD/SCID mice 6 to 8 weeks of age were obtained from the UT Southwestern Animal Resources Center, underwent surgical orchiectomy and a DHEA pellet (5 mg 90-day sustained-release) implantation and 2 days later underwent subcutaneous injection with 7×10^6 LAPC4 cells. Tumors reaching 300 mm^3 volume were treated with intraperitoneal abiraterone acetate or vehicle (n=8 mice per treatment) once daily for 5 days per week for 4 weeks. Tumors were fresh frozen upon mouse sacrifice. For the studies of mutant 3βHSD1 knockdown, LNCaP cells (7×10^6) stably expressing shHSD3B1 #1, #2 and shCTRL were subcutaneously injected with matrigel into eugonadal NOD/SCID mice (n=15 per group). Mice with tumors reaching 100 mm^3 volume underwent surgical castration and DHEA pellet implantation. Time from castration to tumor volume ≥600 mm^3 was assessed. For the comparison between wild type and mutant 3βHSD1, LAPC4 cells (7×10^6) stably expressing pLVX-Tight-Puro-HSD3B1 (367N) or pLVX-Tight-Puro-HSD3B1 (367T) were subcutaneously injected into surgically orchiectomized NOD/SCID mice supplemented with a DHEA (5 mg 90-day sustained-release) pellet. Tumor diameters were measured by digital calipers two or three times per week.

For CC(C)C[C@@H](C=O)NC(=O)[C@H](CC(C)C)NC(=O)[C@H](CC(C)C)NC(=O)OCc1ccccc1 [MG132] (Cbz-Leu-Leu-Leu-aldehyde), which “polyubiquitinated 3βHSD1(367T) protein” value [1] is on record?
Its value is “no increase in polyubiquitinated 3βHSD1(367T) protein”.

What about the “3βHSD1 (367N) protein level” value (3βHSD1 (367N); 8 hours) of the same molecule?
Its value is “reverses 3βHSD1 (367N) protein loss”.

And the “polyubiquitinated 3βHSD1 (367N) protein” value [2]?
Its value is “increase in polyubiquitinated 3βHSD1 (367N) protein”.

And the “3βHSD1 (367T) protein level” value (3βHSD1 (367T))?
The value was “no 3βHSD1 (367T) protein increase”.

With CC1(C)C(N(O)C(=O)Nc2ccc(Cl)cc2)N(c2ccc(Cl)cc2)C(=O)N1CC(=O)N/N=C/C=C/c1ccc([N+](=O)[O-])o1 (stereo not drawn) [Eeyarestatin I] as the molecule, how does the “endogenous 3βHSD1 protein” value (3βHSD1 (367N)) read?
The value was “increases endogenous 3βHSD1 protein”.

B1: shHSD3B1 #2: lentiviral miR30-styled shRNA against HSD3B1 (SEQ ID NO: 10) (nucleic acid)
chain: TGCTGTTGACAGTGAGCGAAGAGGAAAGACCATGTGGTTTTAGTGAAGCCACAGATGTAAAACCACATGGTCTTTCCTCTGTGCCTACTGCCTCGGA
B1 was tested. Which 3βHSD1 protein expression (3βHSD1) did it give?
The 3βHSD1 protein expression was “silences 3βHSD1 protein expression”.

What about the “CRPC growth (days from orchiectomy to tumor volume ≥600 mm^3)” value (LNCaP xenografts) of the same molecule?
The value was “blocks CRPC growth”.

B2: shHSD3B1 #1: lentiviral miR30-styled shRNA against HSD3B1 (SEQ ID NO: 9) (nucleic acid)
chain: TGCTGTTGACAGTGAGCGACCTCATACAGAAAGTGACAAGTAGTGAAGCCACAGATGTACTTGTCACTTTCTGTATGAGGCTGCCTACTGCCTCGGA
Which results are given for B2?
3βHSD1 protein expression (3βHSD1): silences 3βHSD1 protein expression; CRPC growth (days from orchiectomy to tumor volume ≥600 mm^3) (LNCaP xenografts): blocks CRPC growth

Reference: patent publication US10533228B2, “3.beta-hydroxysteroid dehydrogenase in steroid dependent disease” (THE CLEVELAND CLINIC FOUNDATION, priority 2013, dated 2020)
